Among the data in PubChem BioAssay AID288 (DTP/NCI, 2004) are T/C values, retold here.

Values joined by “and” are separate entries in the source; they are usually repeats but may differ in a detail not shown here. Identical values can stand only once. Records with an inconclusive call do not appear.

The assay concerns BDF1 mice, M5076 sarcoma s.c., survival/tumor T/C. Description: NCI In Vivo Anticancer Drug Screen. Data for tumor model Sarcoma M5076 (subcutaneous) in B6D2F1 (BDF1) mice. The method, then: The antitumor activity of compounds was measured in mice bearing transplantable tumors. Survival or tumor size were measured and the results are expressed as the measurement made in the treated group (T) divided by the measurement made in the vehicle treated control group (C). The tumor model used in this assay is Sarcoma M5076 (subcutaneous) in B6D2F1 (BDF1) mice

Setting [1] is: endpoint: median survival time, dose: 50.0 mg/kg/injection, schedule: Q01DX009 (ip), vehicle: saline with Tween-80, higher = longer survival.
The mark [2] stands for this setting: endpoint: median survival time, dose: 100.0 mg/kg/injection, schedule: Q01DX009 (ip), vehicle: saline with Tween-80, higher = longer survival.
[3] abbreviates: endpoint: median tumor weight (est.), dose: 50.0 mg/kg/injection, schedule: Q01DX009 (ip), vehicle: saline with Tween-80, higher = larger tumour.
Setting [4] is: endpoint: median tumor weight (est.), dose: 100.0 mg/kg/injection, schedule: Q01DX009 (ip), vehicle: saline with Tween-80, higher = larger tumour.
The mark [5] stands for this setting: endpoint: median survival time, dose: 50.0 mg/kg/injection, schedule: Q01DX009 (ip), vehicle: saline, higher = longer survival.
Where [6] appears, read: endpoint: median survival time, dose: 200.0 mg/kg/injection, schedule: Q01DX009 (ip), vehicle: saline with Tween-80, higher = longer survival.
Setting [7] is: endpoint: median tumor weight (est.), dose: 200.0 mg/kg/injection, schedule: Q01DX009 (ip), vehicle: saline with Tween-80, higher = larger tumour.

For `COCC(O)Cn1ccnc1[N+](=O)[O-]` (configuration not stated), the T/C is, setting by setting: (endpoint: median survival time, dose: 600.0 mg/kg/injection, schedule: Q04DX003 (ip), vehicle: saline, higher = longer survival) 105 % of control and 106 % of control; (endpoint: median survival time, dose: 668.0 mg/kg/injection, schedule: Q07DX002 (ip), vehicle: saline, higher = longer survival) 97 % of control; (endpoint: median survival time, dose: 1000.0 mg/kg/injection, schedule: Q04DX003 (ip), vehicle: saline, higher = longer survival) 102 % of control; (endpoint: median survival time, dose: 1000.0 mg/kg/injection, schedule: Q07DX002 (ip), vehicle: saline, higher = longer survival) 119 % of control.

As to `CNNCc1ccc(C(=O)NC(C)C)cc1`, the T/C is, setting by setting: (endpoint: median survival time, dose: 44.0 mg/kg/injection, schedule: Q04DX006 (ip), vehicle: saline, higher = longer survival) 118 % of control; (endpoint: median survival time, dose: 88.0 mg/kg/injection, schedule: Q02DX033 (ip), vehicle: saline, higher = longer survival) 214 % of control; (endpoint: median survival time, dose: 88.0 mg/kg/injection, schedule: Q04DX006 (ip), vehicle: saline, higher = longer survival) 151 % of control; (endpoint: median survival time, dose: 176.0 mg/kg/injection, schedule: Q02DX033 (ip), vehicle: saline, higher = longer survival) 92 % of control; (endpoint: median survival time, dose: 176.0 mg/kg/injection, schedule: Q04DX006 (ip), vehicle: saline, higher = longer survival) 216 % of control; (endpoint: median survival time, dose: 352.0 mg/kg/injection, schedule: Q04DX006 (ip), vehicle: saline, higher = longer survival) 179 % of control.

For the compound `COc1cc(/C=C2\SC(=S)N(c3ccc(Cl)c(Cl)c3)C2=O)ccc1O`, the T/C under setting [1] was 90 % of control, the T/C under setting [2] was 94 % of control, the T/C under setting [3] is 105 % of control and the T/C under setting [4] is 117 % of control.

Turning to `NCCNCC(O)CO` (configuration not stated), the T/C was 90 % of control under setting [5]; 112 % of control (endpoint: median survival time, dose: 100.0 mg/kg/injection, schedule: Q01DX009 (ip), vehicle: saline, higher = longer survival); 105 % of control (endpoint: median survival time, dose: 200.0 mg/kg/injection, schedule: Q01DX009 (ip), vehicle: saline, higher = longer survival); 76 % of control (endpoint: median tumor weight (est.), dose: 100.0 mg/kg/injection, schedule: Q01DX009 (ip), vehicle: saline, higher = larger tumour); 115 % of control (endpoint: median tumor weight (est.), dose: 200.0 mg/kg/injection, schedule: Q01DX009 (ip), vehicle: saline, higher = larger tumour).

For the compound `Cn1c2c(c(=O)n(C)c1=O)CS(=O)c1ccccc1N2` (configuration not stated), the T/C reads like this: under setting [1], 103 % of control; under setting [2], 106 % of control; under setting [6], 109 % of control; under setting [3], 65 % of control; under setting [4], 61 % of control; under setting [7], 83 % of control.

With `O=C1/C(=C/c2ccc3c(c2)OCO3)SC(=S)N1c1ccc(Cl)c(Cl)c1`, the T/C was 102 % of control under setting [1], 90 % of control under setting [2], 154 % of control under setting [3] and 116 % of control under setting [4].

In the case of `Nc1nncs1`, the T/C runs as follows: (endpoint: mean tumor weight, dose: 18.8 mg/kg/injection, schedule: Q02DX011 (ip), vehicle: saline, higher = larger tumour) 43 % of control; (endpoint: mean tumor weight, dose: 37.5 mg/kg/injection, schedule: Q02DX011 (ip), vehicle: saline, higher = larger tumour) 3 % of control; (endpoint: median survival time, dose: 6.25 mg/kg/injection, schedule: Q01DX009 (ip), vehicle: saline, higher = longer survival) 103 % of control; (endpoint: median survival time, dose: 12.5 mg/kg/injection, schedule: Q01DX009 (ip), vehicle: saline, higher = longer survival) 111 % of control; (endpoint: median survival time, dose: 25.0 mg/kg/injection, schedule: Q01DX009 (ip), vehicle: saline, higher = longer survival) 121 % of control; under setting [5], 122 % of control. Moreover, the T/C by setting is: (endpoint: median tumor weight (est.), dose: 6.25 mg/kg/injection, schedule: Q01DX009 (ip), vehicle: saline, higher = larger tumour) 75 % of control; (endpoint: median tumor weight (est.), dose: 12.5 mg/kg/injection, schedule: Q01DX009 (ip), vehicle: saline, higher = larger tumour) 53 % of control; (endpoint: median tumor weight (est.), dose: 18.8 mg/kg/injection, schedule: Q02DX011 (ip), vehicle: saline, higher = larger tumour) 47 % of control; (endpoint: median tumor weight (est.), dose: 25.0 mg/kg/injection, schedule: Q01DX009 (ip), vehicle: saline, higher = larger tumour) 22 % of control.

As to `CS(=O)(=O)c1ncc(Br)cn1`, the T/C is, setting by setting: (endpoint: median survival time, dose: 25.0 mg/kg/injection, schedule: Q04DX003 (ip), vehicle: saline with Tween-80, higher = longer survival) 100 % of control; (endpoint: median survival time, dose: 50.0 mg/kg/injection, schedule: Q04DX003 (ip), vehicle: saline with Tween-80, higher = longer survival) 84 % of control; (endpoint: median survival time, dose: 100.0 mg/kg/injection, schedule: Q04DX003 (ip), vehicle: saline with Tween-80, higher = longer survival) 99 % of control; (endpoint: median survival time, dose: 200.0 mg/kg/injection, schedule: Q04DX003 (ip), vehicle: saline with Tween-80, higher = longer survival) 91 % of control.

Consider `NCCc1ccc(O)c(O)c1`, for which the T/C is 53 % of control (endpoint: mean tumor weight, dose: 25.0 mg/kg/injection, schedule: Q02DX011 (ip), vehicle: saline, higher = larger tumour); 57 % of control (endpoint: mean tumor weight, dose: 50.0 mg/kg/injection, schedule: Q02DX011 (ip), vehicle: saline, higher = larger tumour); 62 % of control (endpoint: mean tumor weight, dose: 100.0 mg/kg/injection, schedule: Q02DX011 (ip), vehicle: saline, higher = larger tumour); 45 % of control (endpoint: mean tumor weight, dose: 200.0 mg/kg/injection, schedule: Q02DX011 (ip), vehicle: saline, higher = larger tumour); 76 % of control (endpoint: mean tumor weight, dose: 400.0 mg/kg/injection, schedule: Q02DX011 (ip), vehicle: saline, higher = larger tumour); 95 % of control (endpoint: mean tumor weight, dose: 800.0 mg/kg/injection, schedule: Q02DX011 (ip), vehicle: saline, higher = larger tumour). For the same compound, the T/C by setting is: (endpoint: median survival time, dose: 12.5 mg/kg/injection, schedule: Q02DX030 (ip), vehicle: saline, higher = longer survival) 114 % of control; (endpoint: median survival time, dose: 25.0 mg/kg/injection, schedule: Q02DX030 (ip), vehicle: saline, higher = longer survival) 99 % of control; (endpoint: median survival time, dose: 50.0 mg/kg/injection, schedule: Q02DX030 (ip), vehicle: saline, higher = longer survival) 91 % of control; (endpoint: median survival time, dose: 100.0 mg/kg/injection, schedule: Q02DX030 (ip), vehicle: saline, higher = longer survival) 100 % of control; (endpoint: median survival time, dose: 200.0 mg/kg/injection, schedule: Q02DX030 (ip), vehicle: saline, higher = longer survival) 93 % of control; (endpoint: median survival time, dose: 800.0 mg/kg/injection, schedule: Q02DX030 (ip), vehicle: saline, higher = longer survival) 91 % of control. The T/C by setting is: (endpoint: median tumor weight (est.), dose: 25.0 mg/kg/injection, schedule: Q02DX011 (ip), vehicle: saline, higher = larger tumour) 58 % of control; (endpoint: median tumor weight (est.), dose: 50.0 mg/kg/injection, schedule: Q02DX011 (ip), vehicle: saline, higher = larger tumour) 59 % of control; (endpoint: median tumor weight (est.), dose: 100.0 mg/kg/injection, schedule: Q02DX011 (ip), vehicle: saline, higher = larger tumour) 80 % of control; (endpoint: median tumor weight (est.), dose: 200.0 mg/kg/injection, schedule: Q02DX011 (ip), vehicle: saline, higher = larger tumour) 62 % of control; (endpoint: median tumor weight (est.), dose: 400.0 mg/kg/injection, schedule: Q02DX011 (ip), vehicle: saline, higher = larger tumour) 66 % of control; (endpoint: median tumor weight (est.), dose: 800.0 mg/kg/injection, schedule: Q02DX011 (ip), vehicle: saline, higher = larger tumour) 77 % of control. Moreover, the T/C is, setting by setting: (endpoint: median tumor weight change, dose: 12.5 mg/kg/injection, schedule: Q02DX006 (ip), vehicle: saline, higher = larger tumour) 86 % of control; (endpoint: median tumor weight change, dose: 25.0 mg/kg/injection, schedule: Q02DX006 (ip), vehicle: saline, higher = larger tumour) 93 % of control; (endpoint: median tumor weight change, dose: 50.0 mg/kg/injection, schedule: Q02DX006 (ip), vehicle: saline, higher = larger tumour) 112 % of control; (endpoint: median tumor weight change, dose: 100.0 mg/kg/injection, schedule: Q02DX006 (ip), vehicle: saline, higher = larger tumour) 103 % of control; (endpoint: median tumor weight change, dose: 200.0 mg/kg/injection, schedule: Q02DX006 (ip), vehicle: saline, higher = larger tumour) 105 % of control; (endpoint: median tumor weight change, dose: 400.0 mg/kg/injection, schedule: Q02DX006 (ip), vehicle: saline, higher = larger tumour) 99 % of control. The T/C (endpoint: median tumor weight change, dose: 800.0 mg/kg/injection, schedule: Q02DX006 (ip), vehicle: saline, higher = larger tumour) is 101 % of control.

On to `CCCCN1C(=O)/C(=C/c2ccccc2OC)SC1=S`, for which the T/C is, setting by setting: under setting [1], 103 % of control; under setting [2], 107 % of control; under setting [6], 93 % of control; under setting [3], 98 % of control; under setting [4], 97 % of control; under setting [7], 107 % of control.

Take `O=NN(CCCl)C(=O)NC1CCC(=O)NC1=O` (configuration not stated): the T/C (endpoint: median survival time, dose: 2.0 mg/kg/injection, schedule: Q01DX009 (ip), vehicle: saline + alcohol, higher = longer survival) was 170 % of control; the T/C (endpoint: median survival time, dose: 4.0 mg/kg/injection, schedule: Q01DX009 (ip), vehicle: saline + alcohol, higher = longer survival) is 208 % of control; the T/C (endpoint: median survival time, dose: 8.0 mg/kg/injection, schedule: Q01DX009 (ip), vehicle: saline + alcohol, higher = longer survival) is 86 % of control.
